Test results taken from patent US20260317344A1, “EGFR INHIBITORS FOR TREATING DISEASE” (BLOSSOMHILL THERAPEUTICS, INC., priority 2023, published 2026).

What was measured:
EGFR (L858R) = EGFR (L858R) (Homo sapiens, UniProt P00533, L858R); assay: HotSpot radiometric kinase assay, inhibition of EGFR L858R mutant; assay type: biochemical; conditions: 33P ATP, room temperature, 120 m
Protocol: (§1) Biochemical Assays for inhibition of wild-type and mutant EGFRs
(§2) Briefly, specific kinase/substrate pairs along with required cofactors were prepared in reaction buffer; 20 mM HEPES pH 7.5, 10 mM […], 1 mM EGTA, 0.02% Brij35, 0.02 mg/ml BSA, 0.1 mM Na3VO4, 2 mM DTT, 1% DMSO. Compounds were delivered into the reaction, followed ~20 minutes later by addition of a mixture of ATP (Sigma, St. Louis MO) and ^33P ATP (Perkin Elmer, Waltham MA) to a final concentration of […]. Reactions were carried out at room temperature for 120 m, followed by spotting of the reactions onto P81 ion exchange filter paper (Whatman Inc., Piscataway, NJ). Unbound phosphate was removed by extensive washing of filters in 0.75% phosphoric acid. […] IC50 values and curve fits were obtained using Prism (GraphPad Software).

EGFR (L858R/T790M) = EGFR (L858R/T790M) (Homo sapiens, UniProt P00533, L858R/T790M); assay: HotSpot radiometric kinase assay, inhibition of EGFR L858R/T790M mutant; assay type: biochemical; conditions: 33P ATP, room temperature, 120 m
Protocol: as §1, §2

EGFR (L858R/T790M/C797S) = EGFR (L858R/T790M/C797S) (Homo sapiens, UniProt P00533, C797S/L858R/T790M); assay: HotSpot radiometric kinase assay, inhibition of EGFR L858R/T790M/C797S mutant; assay type: biochemical; conditions: 33P ATP, room temperature, 120 m
Procedure, shortened: (§3)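 Kinase/substrate pairs in 20 mM HEPES pH 7.5, 10 mM MgCl2, 1 mM EGTA, 0.02% Brij35, 0.02 mg/ml BSA, 0.1 mM Na3VO4, 2 mM DTT, 1% DMSO, preincubated ~20 min with compound. Reaction started with ATP/33P-ATP ([…]), run 120 min at room temperature; phosphorylation read by P81 filter binding, IC50 from curve fits.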

EGFR (D746-750) = EGFR (D746-750) (Homo sapiens, UniProt P00533, DEL746-750); assay: HotSpot radiometric kinase assay, inhibition of EGFR 746-750 mutant; assay type: biochemical; conditions: 33P ATP, room temperature, 120 m
Procedure, shortened: as §3

EGFR (D746-750/C797S) = EGFR (D746-750/C797S) (Homo sapiens, UniProt P00533, C797S/DEL746-750); assay: HotSpot radiometric kinase assay, inhibition of EGFR 746-750/C797S mutant; assay type: biochemical; conditions: 33P ATP, room temperature, 120 m
Procedure, shortened: as §3

EGFR (D770_N771insNPG) = EGFR (D770_N771insNPG) (Homo sapiens, UniProt P00533, INS770NPG); assay: HotSpot radiometric kinase assay, inhibition of EGFR (D770_N771insNPG) mutant; assay type: biochemical; conditions: 33P ATP, room temperature, 120 m
Procedure, shortened: as §3

EGFR WT = EGFR WT (Homo sapiens, UniProt P00533); assay: HotSpot radiometric kinase assay, inhibition of EGFR WT; assay type: biochemical; conditions: 33P ATP, room temperature, 120 m
Protocol: as §1, §2

[1] = biological target: T1, pEGFR, PC-9 cells (d746-750 EGFR) (Homo sapiens, UniProt P00533, DEL746-750); assay: Cellular EGFR phosphorylation assay (LANCE Ultra TR-FRET) in PC-9 cells; assay type: cell-based; conditions: 4 hours at 37° C., read-out: PC-9 pEGFR IC50
T1 construct: pEGFR (Tyr1068) TR-FRET
Procedure, shortened: (§4)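 4 h compound treatment at 37 °C, 9-point 3-fold titration. EGF (40 ng/mL, final 10 min) in A431 only. Tyr1068 phosphorylation measured by TR-FRET and IC50 fitted.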

[2] = biological target: T2, pEGFR, NCI-H1975 cells (L858R/T790M EGFR) (Homo sapiens, UniProt P00533, L858R/T790M); assay: Cellular EGFR phosphorylation assay (LANCE Ultra TR-FRET) in NCI-H1975 cells; assay type: cell-based; conditions: 4 hours at 37° C., read-out: H1975 pEGFR IC50
T2 construct: pEGFR (Tyr1068) TR-FRET
Procedure, shortened: as §4

[3] = biological target: T3, pEGFR, A431 cells (wildtype EGFR) (Homo sapiens, UniProt P00533); assay: Cellular EGFR phosphorylation assay (LANCE Ultra TR-FRET) in A431 cells; assay type: cell-based; conditions: 4 hours at 37° C., 40 ng/mL EGF for the final 10 minutes, read-out: A431 pEGFR IC50
T3 construct: pEGFR (Tyr1068) TR-FRET
Procedure, shortened: as §4

PC-9 cells = assay: 5-Day CellTiter Glo (CTG) cell proliferation assay, PC-9; assay type: cell-based; conditions: Homo sapiens; PC-9 cells (d746-750 EGFR), 5-day CTG proliferation, 120 hours; read-out: PC-9 IC50
Procedure, shortened: (§5)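 Luminescent ATP signal (CellTiter-Glo 2.0) after 120 hours of compound exposure gave IC50 values. PC-9 and HCC827 harbour EGFR d746-750; NCI-H1975 harbours L858R/T790M.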

NCI-H1975 cells = assay: 5-Day CellTiter Glo (CTG) cell proliferation assay, NCI-H1975; assay type: cell-based; conditions: Homo sapiens; NCI-H1975 cells (L858R/T790M EGFR), 5-day CTG proliferation, 120 hours; read-out: H1975 IC50
Procedure, shortened: as §5

HCC827 cells = assay: 5-Day CellTiter Glo (CTG) cell proliferation assay, HCC827; assay type: cell-based; conditions: Homo sapiens; HCC827 cells (d746-750 EGFR), 5-day CTG proliferation, 120 hours; read-out: HCC827 IC50
Procedure, shortened: as §5

[4] = test system: BaF3 cells with engineered EGFR L858R/T790M/C797S; assay: 3-Day CellTiter Glo (CTG) cell proliferation assay, BaF3 EGFR L858R/T790M/C797S; assay type: cell-based; conditions: Mus musculus, 3-day CTG proliferation, 72 hours
Procedure, shortened: (§6)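 Growth inhibition in transgene-bearing BaF3 lines was scored after three days of compound treatment by CellTiter-Glo 2.0 ATP luminescence, yielding IC50 values.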

[5] = test system: BaF3 cells with engineered EGFR L858R/C797S; assay: 3-Day CellTiter Glo (CTG) cell proliferation assay, BaF3 EGFR L858R/C797S; assay type: cell-based; conditions: Mus musculus, 3-day CTG proliferation, 72 hours
Procedure, shortened: as §6

[6] = test system: BaF3 cells with engineered EGFR d746-750/T790M; assay: 3-Day CellTiter Glo (CTG) cell proliferation assay, BaF3 EGFR d746-750/T790M; assay type: cell-based; conditions: Mus musculus; BaF3 EGFR d746-750/T790M cells, 3-day CTG proliferation, 72 hours
Procedure, shortened: as §6

EGFR (D770_N771insNPG), sequence (P00533 with tags, fused parts or gaps INS770NPG limits assumed): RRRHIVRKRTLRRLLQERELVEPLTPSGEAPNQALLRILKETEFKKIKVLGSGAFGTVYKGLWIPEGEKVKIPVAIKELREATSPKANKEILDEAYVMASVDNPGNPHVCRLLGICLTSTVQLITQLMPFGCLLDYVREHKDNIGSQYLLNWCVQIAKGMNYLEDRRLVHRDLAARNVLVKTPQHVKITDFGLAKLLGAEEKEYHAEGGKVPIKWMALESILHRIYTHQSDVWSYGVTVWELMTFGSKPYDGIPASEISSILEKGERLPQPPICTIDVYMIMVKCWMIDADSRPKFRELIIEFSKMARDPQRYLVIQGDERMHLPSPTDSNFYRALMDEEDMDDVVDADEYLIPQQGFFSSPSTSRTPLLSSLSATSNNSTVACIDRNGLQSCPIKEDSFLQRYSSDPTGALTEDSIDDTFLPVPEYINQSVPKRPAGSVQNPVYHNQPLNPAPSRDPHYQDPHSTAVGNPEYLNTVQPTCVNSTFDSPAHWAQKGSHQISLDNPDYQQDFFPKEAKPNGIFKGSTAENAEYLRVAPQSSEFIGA
EGFR (L858R/T790M/C797S), sequence (P00533 25-1210 T790M/C797S/L858R): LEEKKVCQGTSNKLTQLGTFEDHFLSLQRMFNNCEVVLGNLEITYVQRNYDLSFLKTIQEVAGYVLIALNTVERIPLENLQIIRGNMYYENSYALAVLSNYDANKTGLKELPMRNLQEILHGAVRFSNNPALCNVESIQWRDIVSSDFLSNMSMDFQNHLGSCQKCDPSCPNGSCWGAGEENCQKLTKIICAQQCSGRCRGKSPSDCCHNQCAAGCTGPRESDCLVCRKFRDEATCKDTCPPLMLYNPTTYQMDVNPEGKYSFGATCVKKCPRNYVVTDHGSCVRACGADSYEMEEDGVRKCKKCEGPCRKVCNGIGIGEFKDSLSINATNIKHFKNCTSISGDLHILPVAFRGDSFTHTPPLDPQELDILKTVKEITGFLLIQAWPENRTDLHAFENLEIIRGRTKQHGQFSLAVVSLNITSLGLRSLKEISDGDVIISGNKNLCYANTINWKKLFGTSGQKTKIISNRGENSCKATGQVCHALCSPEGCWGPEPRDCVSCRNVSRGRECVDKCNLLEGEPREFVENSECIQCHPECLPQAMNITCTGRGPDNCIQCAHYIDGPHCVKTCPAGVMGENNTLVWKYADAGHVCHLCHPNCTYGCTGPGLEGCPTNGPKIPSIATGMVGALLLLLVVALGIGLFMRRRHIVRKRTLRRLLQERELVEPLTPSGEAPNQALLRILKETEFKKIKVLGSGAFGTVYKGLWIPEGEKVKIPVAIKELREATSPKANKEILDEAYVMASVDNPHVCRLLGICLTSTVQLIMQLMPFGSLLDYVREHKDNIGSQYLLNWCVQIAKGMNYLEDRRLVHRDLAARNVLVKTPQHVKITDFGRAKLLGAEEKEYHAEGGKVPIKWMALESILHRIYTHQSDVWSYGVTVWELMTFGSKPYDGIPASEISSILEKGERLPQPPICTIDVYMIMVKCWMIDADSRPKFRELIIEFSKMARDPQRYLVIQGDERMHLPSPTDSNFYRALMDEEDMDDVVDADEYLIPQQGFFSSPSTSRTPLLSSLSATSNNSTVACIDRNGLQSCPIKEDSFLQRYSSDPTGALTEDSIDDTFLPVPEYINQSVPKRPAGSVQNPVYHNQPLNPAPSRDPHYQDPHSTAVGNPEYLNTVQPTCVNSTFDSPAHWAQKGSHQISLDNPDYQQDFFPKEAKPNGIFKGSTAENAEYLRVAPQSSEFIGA
EGFR (D746-750/C797S), sequence (P00533 with tags, fused parts or gaps DEL746-750/C797S): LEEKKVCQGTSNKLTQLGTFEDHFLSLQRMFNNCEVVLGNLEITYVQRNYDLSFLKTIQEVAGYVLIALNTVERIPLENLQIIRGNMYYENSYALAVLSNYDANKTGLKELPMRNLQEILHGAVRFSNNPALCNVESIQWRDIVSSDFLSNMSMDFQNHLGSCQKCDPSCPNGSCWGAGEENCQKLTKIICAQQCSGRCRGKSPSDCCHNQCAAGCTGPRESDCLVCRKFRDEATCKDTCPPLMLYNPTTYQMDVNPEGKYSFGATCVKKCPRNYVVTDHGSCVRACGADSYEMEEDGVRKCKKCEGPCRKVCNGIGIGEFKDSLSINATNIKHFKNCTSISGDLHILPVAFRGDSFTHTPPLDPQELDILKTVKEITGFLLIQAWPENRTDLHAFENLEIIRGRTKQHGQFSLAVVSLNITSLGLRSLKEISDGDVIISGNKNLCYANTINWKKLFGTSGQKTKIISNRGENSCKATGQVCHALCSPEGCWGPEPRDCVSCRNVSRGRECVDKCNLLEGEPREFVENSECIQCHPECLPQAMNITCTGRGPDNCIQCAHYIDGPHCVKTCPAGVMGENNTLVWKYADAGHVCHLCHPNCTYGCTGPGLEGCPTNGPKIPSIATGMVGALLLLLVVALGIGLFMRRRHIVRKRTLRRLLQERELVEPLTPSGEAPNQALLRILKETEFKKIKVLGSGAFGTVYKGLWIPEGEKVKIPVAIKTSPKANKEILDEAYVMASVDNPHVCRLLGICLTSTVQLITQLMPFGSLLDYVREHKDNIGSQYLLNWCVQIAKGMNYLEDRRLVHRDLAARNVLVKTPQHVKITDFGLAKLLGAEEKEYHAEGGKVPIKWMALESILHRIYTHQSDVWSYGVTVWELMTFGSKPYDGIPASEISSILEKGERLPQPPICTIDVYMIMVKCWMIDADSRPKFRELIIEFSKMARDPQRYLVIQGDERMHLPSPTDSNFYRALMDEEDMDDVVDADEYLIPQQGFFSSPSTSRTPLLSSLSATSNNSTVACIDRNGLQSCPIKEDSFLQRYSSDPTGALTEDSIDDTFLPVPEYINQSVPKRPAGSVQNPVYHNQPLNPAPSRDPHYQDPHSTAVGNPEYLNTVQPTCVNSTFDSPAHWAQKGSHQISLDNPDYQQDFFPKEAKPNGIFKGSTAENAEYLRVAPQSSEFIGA
T2 sequence (P00533 25-1210 T790M/L858R): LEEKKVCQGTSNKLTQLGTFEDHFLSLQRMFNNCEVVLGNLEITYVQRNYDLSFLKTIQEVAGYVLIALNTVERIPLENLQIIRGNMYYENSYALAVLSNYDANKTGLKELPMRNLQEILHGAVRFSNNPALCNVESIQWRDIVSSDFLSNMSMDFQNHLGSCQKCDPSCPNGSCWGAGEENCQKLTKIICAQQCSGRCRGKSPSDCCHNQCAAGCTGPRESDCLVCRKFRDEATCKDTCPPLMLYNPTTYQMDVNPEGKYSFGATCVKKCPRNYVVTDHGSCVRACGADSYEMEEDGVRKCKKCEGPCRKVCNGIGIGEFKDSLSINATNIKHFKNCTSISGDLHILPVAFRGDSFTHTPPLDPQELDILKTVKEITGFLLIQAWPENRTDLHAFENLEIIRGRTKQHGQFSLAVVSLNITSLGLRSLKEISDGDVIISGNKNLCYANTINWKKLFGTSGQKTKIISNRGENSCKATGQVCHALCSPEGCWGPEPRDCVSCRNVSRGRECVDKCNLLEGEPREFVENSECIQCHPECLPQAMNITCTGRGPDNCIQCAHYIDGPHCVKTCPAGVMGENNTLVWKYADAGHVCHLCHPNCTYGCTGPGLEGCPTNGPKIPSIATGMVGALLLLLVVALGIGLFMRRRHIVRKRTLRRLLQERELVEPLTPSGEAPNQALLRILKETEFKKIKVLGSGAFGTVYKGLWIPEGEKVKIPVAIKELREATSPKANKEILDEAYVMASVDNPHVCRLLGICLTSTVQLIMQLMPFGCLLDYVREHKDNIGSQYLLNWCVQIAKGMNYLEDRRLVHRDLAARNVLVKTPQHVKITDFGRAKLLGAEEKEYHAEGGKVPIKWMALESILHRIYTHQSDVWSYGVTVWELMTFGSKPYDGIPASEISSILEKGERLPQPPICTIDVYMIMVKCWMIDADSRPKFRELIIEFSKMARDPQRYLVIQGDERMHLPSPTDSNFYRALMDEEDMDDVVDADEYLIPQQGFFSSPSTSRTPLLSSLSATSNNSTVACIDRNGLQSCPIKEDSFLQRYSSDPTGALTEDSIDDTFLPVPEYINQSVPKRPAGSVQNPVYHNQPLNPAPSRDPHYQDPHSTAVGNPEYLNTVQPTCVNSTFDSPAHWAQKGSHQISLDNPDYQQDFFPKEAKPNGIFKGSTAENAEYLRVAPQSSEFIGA

| SMILES | IC50 (EGFR (L858R)) | IC50 (EGFR (L858R/T790M)) | IC50 (EGFR (L858R/T790M/C797S)) | IC50 (EGFR (D746-750)) | IC50 (EGFR (D746-750/C797S)) | IC50 (EGFR (D770_N771insNPG)) | IC50 (EGFR WT) | IC50 [1] | IC50 [2] | IC50 [3] | IC50 (PC-9 cells) | IC50 (NCI-H1975 cells) | IC50 (HCC827 cells) | IC50 [4] | IC50 [5] | IC50 [6] |
| --- | --- | --- | --- | --- | --- | --- | --- | --- | --- | --- | --- | --- | --- | --- | --- | --- |
| CCOc1nn(CCO)c2c1/C=C/c1n[nH]c3cnc(cc13)-c1c(C)nn(C)c1O[C@H](C)CN(CC)C2 [Ex. 17, 2-[(10R,17E)-16-ethoxy-12-ethyl-6,8,10-trimethyl-2,8,10,11,12,13-hexahydro-14H-5,3-(azenometheno)tripyrazolo[3,4-f:3′,4′-j:4″,3″-n][1,4]oxazacyclopentadecin-14-yl]ethan-1-ol] | 0.52 nM | 0.97 nM | 2.37 nM | 0.31 nM | 1 nM | 0.59 nM | 0.36 nM | 1.85 nM | 2.63 nM | 14.3 nM | 2.01 nM | 17.5 nM | 0.37 nM | 1.14 nM | 0.22 nM | 0.34 nM |
| CCN1Cc2c(c(OC(C)C)nn2CCO)/C=C/c2n[nH]c3cnc(cc23)-c2cnn(C)c2O[C@H](C)C1 [Ex. 10, 2-[(10R,17E)-12-ethyl-8,10-dimethyl-16-[(propan-2-yl)oxy]-2,8,10,11,12,13-hexahydro-14H-5,3-(azenometheno)tripyrazolo[3,4-f:3′,4′-j:4″,3″-n][1,4]oxazacyclopentadecin-14-yl]ethan-1-ol] | 0.46 nM | 0.46 nM | 0.51 nM | 0.64 nM | 0.27 nM | 0.4 nM | 0.35 nM | 10.8 nM | 4.82 nM | 51.9 nM |  |  |  | 1.89 nM |  | 0.69 nM |
| Cc1nn(CCO)c2c1/C=C/c1n[nH]c3cnc(cc13)-c1c(C)nn(C)c1O[C@@H](C)CN(C(C)C)C2 [Ex. 21, 2-[(10S,17E)-6,8,10,16-tetramethyl-12-(propan-2-yl)-2,8,10,11,12,13-hexahydro-14H-5,3-(azenometheno)tripyrazolo[3,4-f:3′,4′-j:4″,3″-n][1,4]oxazacyclopentadecin-14-yl]ethan-1-ol] | 0.29 nM | 0.5 nM | 2.14 nM | 0.17 nM | 0.83 nM | 0.2 nM | 0.16 nM | 1.69 nM | 2.32 nM | 15.8 nM | 0.63 nM | 5.72 nM | 0.26 nM | 0.9 nM | 0.14 nM |  |
| Cc1nn(CCO)c2c1/C=C/c1n[nH]c3cnc(cc13)-c1c(C)nn(C)c1O[C@H](C)CN(C(C)C)C2 [Ex. 20, 2-[(10R,17E)-6,8,10,16-tetramethyl-12-(propan-2-yl)-2,8,10,11,12,13-hexahydro-14H-5,3-(azenometheno)tripyrazolo[3,4-f:3′,4′-j:4″,3″-n][1,4]oxazacyclopentadecin-14-yl]ethan-1-ol] | 0.55 nM | 0.81 nM | 2.57 nM | 0.27 nM | 0.98 nM | 1.48 nM | 0.71 nM | 11.8 nM | 8.57 nM | 61 nM | 25.2 nM | 96 nM | 2.89 nM | 5.29 nM | 3.05 nM |  |
